{"source": "paper PMC7051184", "about": "“C9orf72 arginine-rich dipeptide repeat proteins disrupt karyopherin-mediated nuclear import” (eLife, 2020);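 as to ImpA band density, % untr control: RNA rows contain added 20 µg total HEK RNA while no-RNA rows lack it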;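 as to Ran band density, % untr control: RNA rows contain added 20 µg total HEK RNA while no-RNA rows lack it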;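 as to Rps6 band density, % untr control: RNA rows contain added 20 µg total HEK RNA while no-RNA rows lack it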;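 as to TNPO1 band density, % untr control: RNA rows contain added 20 µg total HEK RNA while no-RNA rows lack it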", "assay_type_in_all_cases": "biochemical, human", "conditions_in_all_cases": "Fig 5-suppl 3C, normalized to untreated HEK on same membrane", "key": {"RanGAP1": {"system": "RanGAP1", "experiment": "DPR aggregation assay and western blot, RanGAP1", "experimental": "(§1) Supernatant and pellet fractions (for all 5 DPRs, and control/buffer only) were prepared as in the nuclear transport assays, by adding 100 µM 10mers to 2.5 mg/ml HEK lysate in 100 µL TRB. Supernatants were boiled in Laemmli (BioRad) for 5 min. Pellets were boiled for 15 min followed by sonication in order to fully disperse aggregates for SDS-PAGE. Equal volumes of supernatant and pellet fractions were run on 4–12% Bolt Bis-Tris Plus gels (ThermoFisher), transferred to nitrocellulose membrane using an iBlot2 dry blotting system (ThermoFisher). Protein loading was analyzed by BLOT-Faststain (G-biosciences, St. Louis, MO), according to the manufacterers’ instructions. For immunodetection, membranes were blocked with 5% non-fat milk in TBST and probed by sequential incubation with the primary antibodies as detailed in the table below. Detection was by HRP-conjugated secondary antibodies/chemiluminescence using an ImageQuant LAS 4000 system (GE, Chicago, IL). To permit sequential probing of membranes without stripping, signals were quenched by incubation with prewarmed 30% H20_2 for 20 min ([Sennepin et al., 2009]). Band intensities were measured by ImageQuant software. For pellet vs. supernatant fractions, all were expressed as percent untreated control. For blots in Figure 1E, samples were run on 4–20% SDS PAGE minigels (ThermoFisher) and blotted to PVDF membranes (Immun-Blot PVDF, Bio-Rad) using the Bio-Rad TransBlot Turbo apparatus, and probed as above. The chemiluminescence signal was captured with a Bio-Rad ChemiDoc XRS+ digital imaging system."}, "transportin-1 (Tnpo1)": {"system": "transportin-1 (Tnpo1)", "experiment": "DPR aggregation assay and western blot, Tnpo1", "experimental": "as §1"}, "Ran": {"system": "Ran", "experiment": "DPR aggregation assay and western blot, Ran", "experimental": "as §1"}, "RPS6": {"system": "RPS6", "experiment": "DPR aggregation assay and western blot, RPS6", "experimental": "as §1"}, "importin α": {"system": "importin α", "experiment": "DPR aggregation assay and western blot, ImpA", "experimental": "as §1"}, "TDP-43": {"system": "TDP-43", "experiment": "DPR aggregation assay and western blot, TDP-43", "experimental": "as §1"}, "[1]": {"conditions": "Pellet, no RNA (Untreated), blot 1"}, "[2]": {"conditions": "Pellet, no RNA (Untreated), blot 2"}, "[3]": {"conditions": "Supernatant, no RNA (Untreated), blot 1"}, "[4]": {"conditions": "Supernatant, no RNA (Untreated), blot 2"}}, "data": [{"substance": "GA10: Synthetic 10-mer GA dipeptide repeat with C-terminal lysine and cysteine (GAGAGAGAGAGAGAGAGAGAKC)", "values": [{"measurement": "RanGAP1 band density, % untr control", "setting": "RanGAP1; Pellet, RNA, blot 1", "value": 93.93, "unit": "%"}, {"measurement": "RanGAP1 band density, % untr control", "setting": "RanGAP1; Pellet, RNA, blot 2", "value": 89.10, "unit": "%"}, {"measurement": "RanGAP1 band density, % untr control", "setting": "RanGAP1; [1]", "value": 87.31, "unit": "%"}, {"measurement": "RanGAP1 band density, % untr control", "setting": "RanGAP1; [2]", "value": 80.44, "unit": "%"}, {"measurement": "RanGAP1 band density, % untr control", "setting": "RanGAP1; Supernatant, RNA, blot 1", "value": 83.26, "unit": "%"}, {"measurement": "RanGAP1 band density, % untr control", "setting": "RanGAP1; Supernatant, RNA, blot 2", "value": 119.18, "unit": "%"}, {"measurement": "RanGAP1 band density, % untr control", "setting": "RanGAP1; [3]", "value": 131.44, "unit": "%"}, {"measurement": "RanGAP1 band density, % untr control", "setting": "RanGAP1; [4]", "value": 105.30, "unit": "%"}, {"measurement": "TNPO1 band density, % untr control", "setting": "transportin-1 (Tnpo1); Pellet, RNA, blot 1", "value": 84.30, "unit": "%"}, {"measurement": "TNPO1 band density, % untr control", "setting": "transportin-1 (Tnpo1); Pellet, RNA, blot 2", "value": 68.79, "unit": "%"}, {"measurement": "TNPO1 band density, % untr control", "setting": "transportin-1 (Tnpo1); [1]", "value": 107.97, "unit": "%"}, {"measurement": "TNPO1 band density, % untr control", "setting": "transportin-1 (Tnpo1); [2]", "value": 107.46, "unit": "%"}, {"measurement": "TNPO1 band density, % untr control", "setting": "transportin-1 (Tnpo1); Supernatant, RNA, blot 1", "value": 64.64, "unit": "%"}, {"measurement": "TNPO1 band density, % untr control", "setting": "transportin-1 (Tnpo1); Supernatant, RNA, blot 2", "value": 100.29, "unit": "%"}, {"measurement": "TNPO1 band density, % untr control", "setting": "transportin-1 (Tnpo1); [3]", "value": 66.29, "unit": "%"}, {"measurement": "TNPO1 band density, % untr control", "setting": "transportin-1 (Tnpo1); [4]", "value": 92.01, "unit": "%"}, {"measurement": "Ran band density, % untr control", "setting": "Ran; Pellet, RNA, blot 1", "value": 129.05, "unit": "%"}, {"measurement": "Ran band density, % untr control", "setting": "Ran; Pellet, RNA, blot 2", "value": 192.76, "unit": "%"}, {"measurement": "Ran band density, % untr control", "setting": "Ran; [1]", "value": 79.12, "unit": "%"}, {"measurement": "Ran band density, % untr control", "setting": "Ran; [2]", "value": 116.78, "unit": "%"}, {"measurement": "Ran band density, % untr control", "setting": "Ran; Supernatant, RNA, blot 1", "value": 116.22, "unit": "%"}, {"measurement": "Ran band density, % untr control", "setting": "Ran; Supernatant, RNA, blot 2", "value": 99.76, "unit": "%"}, {"measurement": "Ran band density, % untr control", "setting": "Ran; [3]", "value": 117.84, "unit": "%"}, {"measurement": "Ran band density, % untr control", "setting": "Ran; [4]", "value": 105.67, "unit": "%"}, {"measurement": "Rps6 band density, % untr control", "setting": "RPS6; Pellet, RNA, blot 1", "value": 45.85, "unit": "%"}, {"measurement": "Rps6 band density, % untr control", "setting": "RPS6; Pellet, RNA, blot 2", "value": 60.48, "unit": "%"}, {"measurement": "Rps6 band density, % untr control", "setting": "RPS6; [1]", "value": 113.52, "unit": "%"}, {"measurement": "Rps6 band density, % untr control", "setting": "RPS6; [2]", "value": 119.87, "unit": "%"}, {"measurement": "Rps6 band density, % untr control", "setting": "RPS6; Supernatant, RNA, blot 1", "value": 64.65, "unit": "%"}, {"measurement": "Rps6 band density, % untr control", "setting": "RPS6; Supernatant, RNA, blot 2", "value": 73.01, "unit": "%"}, {"measurement": "Rps6 band density, % untr control", "setting": "RPS6; [3]", "value": 90.06, "unit": "%"}, {"measurement": "Rps6 band density, % untr control", "setting": "RPS6; [4]", "value": 67.32, "unit": "%"}, {"measurement": "ImpA band density, % untr control", "setting": "importin α; Pellet, RNA, blot 1", "value": 93.99, "unit": "%"}, {"measurement": "ImpA band density, % untr control", "setting": "importin α; Pellet, RNA, blot 2", "value": 102.25, "unit": "%"}, {"measurement": "ImpA band density, % untr control", "setting": "importin α; [1]", "value": 106.73, "unit": "%"}, {"measurement": "ImpA band density, % untr control", "setting": "importin α; [2]", "value": 98.70, "unit": "%"}, {"measurement": "ImpA band density, % untr control", "setting": "importin α; Supernatant, RNA, blot 1", "value": 83.82, "unit": "%"}, {"measurement": "ImpA band density, % untr control", "setting": "importin α; Supernatant, RNA, blot 2", "value": 115.58, "unit": "%"}, {"measurement": "ImpA band density, % untr control", "setting": "importin α; [3]", "value": 82.83, "unit": "%"}, {"measurement": "ImpA band density, % untr control", "setting": "importin α; [4]", "value": 108.20, "unit": "%"}, {"measurement": "TDP43 band density, % untr control", "setting": "TDP-43; Pellet, RNA, blot 1", "value": 112.48, "unit": "%"}, {"measurement": "TDP43 band density, % untr control", "setting": "TDP-43; Pellet, RNA, blot 2", "value": 99.51, "unit": "%"}, {"measurement": "TDP43 band density, % untr control", "setting": "TDP-43; [1]", "value": 116.61, "unit": "%"}, {"measurement": "TDP43 band density, % untr control", "setting": "TDP-43; [2]", "value": 120.53, "unit": "%"}, {"measurement": "TDP43 band density, % untr control", "setting": "TDP-43; Supernatant, RNA, blot 1", "value": 88.02, "unit": "%"}, {"measurement": "TDP43 band density, % untr control", "setting": "TDP-43; Supernatant, RNA, blot 2", "value": 100.78, "unit": "%"}, {"measurement": "TDP43 band density, % untr control", "setting": "TDP-43; [3]", "value": 86.33, "unit": "%"}, {"measurement": "TDP43 band density, % untr control", "setting": "TDP-43; [4]", "value": 98.73, "unit": "%"}]}]}
